Patent publication US20240197650A1, “Combination of Cinnamaldheyde and Eugenol with Antimycotic Activity” (priority 2021, published 2024)

How the values were obtained:
Assay type in all cases: cell-based
C. albicans [1] = assay: Disk diffusion method, C. albicans strains
Procedure: (§1) A total of eighteen strains belonging to Candida spp. (15 C. albicans, 2 C. glabrata and 1 C. lusitaniae) derived from a collection of vaginal strains isolated in CHROMAgar Candida (BD Italia SpA, Milan, Italy) were grown on Potato Dextrose Agar (Oxoid Thermofisher SpA, Milan, Italy) at 35° C. for 24 hours.
Colonies were re-suspended in sterile saline at a density corresponding to #0.5 McFarland (opacity standard). #0.5 McF correspond to 1.4×10^6 colony forming units (CFU)/ml for C. albicans, 4.3×10^6 CFU/ml for C. glabrata and 3×10^6 CFU/ml for C. lusitaniae [Guinea J. et al., Rapid antifungal susceptibility determination for yeast isolates by use of Etest performed directly on blood samples from patients with fungemia, J Clin Microbiol. 2010 June, 48(6): 2205-12]. Then, the sensitivity test vs the two oils has been performed. The disk diffusion method was carried out as follows: for each tested strain, 4 plates of Potato Dextrose Agar (PDA) were seeded in 3 directions to produce a confluent growth, by sterile swab soaked in the cell suspension. Sorbent paper disks (Oxoid Thermofisher SpA, Milan, Italy) 6.0 mm diameter were placed on the agar surface and added with 10 μl of each essential oil. Disks soaked with 10 μg amphotericin B were used as positive control. Also disks of chlortrimazole (from 10 μg to 40 μg) were used, but the inhibition rings could not be clearly read due to the formation of a re-growth ring. Disks soaked with 10 μl pure dimethylsulphoxide (DMSO, Sigma-Aldrich, St. Louis, MO, USA) were used as negative control. The plates were incubated at 35° C. for 24 hours. All the experiments were carried out in duplicate. The inhibiting effect of the oils were considered to be effective when the inhibition ring was equal or greater than that caused by amphotericin B. For amphotericin B, an inhibition zone (IZ)≥15 mm was considered as “sensitivity”, from 10 to 14 mm as “intermediate sensitivity” and <10 mm as “resistance” [Kauser et al., Agreement of Direct Antifungal Susceptibility Testing from Positive Blood Culture Bottles with Conventional Method for Candida Species, J Clin Microbiol. 2016 February, 54(2):343-34].

C. albicans [2] = assay: Microdilution method MIC/MFC, C. albicans strains
Procedure: as §1
The antifungal activity of amphotericin B and of cinnamaldheyde and eugenol were tested with the microdilution method as reported by Bona et al. [Bona et al., Sensitivity of Candida albicans to essential oils: are they an alternative to antifungal agents? J Appl Microbiol. 2016 December, 121(6): 1530-1545] with small changes. All the 18 Candida spp strains were tested. For each isolated, the colonies deriving from cultures (24 hours) in PDA were diluted in saline up to a concentration of 2×10^3 CFU/ml (so obtaining a final concentration of 10 3CGU/ml). Cinnamaldehyde and eugenol were dissolved in DMSO (80% oil, 20% DMSO), then diluted in Sabouraud broth up to a concentration of 8% v/v (so obtaining a final concentration of 4% v/v). Then, in a 96-well microtiter plate ½ serial dilution of amphotericin B (range 32-0.032 μg/ml, for a final range of 16-0.016 μg/ml) and of the essential oils (range 8-0.004% v/v, for a final range of 4-0.002% v/v) were carried out. Each well was then injected with 100 μl of cell suspension. The negative control contained DMSO diluted in Sabouraud broth (at 2% v/v, for a final concentration of 1% v/v). […] Each experiment was carried out in duplicate. The Minimum Inhibitory Concentration (MIC) was determined as the concentration of the oils in the first well which is not cloudy. The Minimum Fungicidal Concentration (MFC) was determined as the lowest concentration of the oils, with the agar culture showing the complete absence of fungal growth. The determination of the amphotericin B MIC was carried out also according to the EUCAST guidelines (cutoff 1 μg/ml) [https://eucast.org/astoffungi/clinicalbreakpointsforantifungals], all the results being consistent.

[3] = system: C. albicans strain (C.a. 15); assay: Time-kill curve; conditions: oil at its MFC, 2×10^5 CFU/ml C.a. 15, 35° C.
Procedure: A C. albicans strain (C.a. 15) was incubated with cinnamaldheyde and eugenol at their MFC. The C. albicans colonies were suspended in Sabouraud broth at a density corresponding to #1.4 McFarland (4×10^6 CFU/ml), then diluted 1/10 (4×10^5 CFU/ml, for a final concentration of 2×10^5 CFU/ml). The suspension was divided into aliquots, two aliquots were incubated with the oils (½ v/v) prepared at a concentration double of their MFC (for a final concentration equal to MFC); the third aliquot was diluted ½ with Sabouraud broth and was used as negative control. The mixtures were incubated at 35° C. on swinging plate. At T0, T1 h, T2 h, T4 h, T6 h, T8 h, T12 h and T24 h, 1/10 serial dilutions were carried out, to determine the total vital count (TVC). From each dilution, 100 μl were seeded in PDA and incubated at 35° C. for 24 hours, then the colonies were counted, their number expressed as CFU/ml. The test was carried out in duplicate.

In the case of C=CCc1ccc(O)c(OC)c1 [Eugenol, eugenol], the “Diameters of the inhibition rings (including 6.0 mm of the disk)” value (“Diameters of the inhibition rings” below) (C. albicans [1]; C. albicans 1) was 35.0 mm, the “Diameters of the inhibition rings” value (C. albicans [1]; C. albicans 2) was 35.0 mm and the “Diameters of the inhibition rings” value (C. albicans [1]; C. albicans 3) was 33.0 mm. For the same compound, the “Diameters of the inhibition rings” value (C. albicans [1]; C. albicans 4) was 35.0 mm, the “Diameters of the inhibition rings” value (C. albicans [1]; C. albicans 5) was 35.0 mm and the “Diameters of the inhibition rings” value (C. albicans [1]; C. albicans 6) was 36.0 mm. For the same compound, the “Diameters of the inhibition rings” value (C. albicans [1]; C. albicans 7) was 44.0 mm, the “Diameters of the inhibition rings” value (C. albicans [1]; C. albicans 8) was 41.0 mm and the “Diameters of the inhibition rings” value (C. albicans [1]; C. albicans 9) was 34.0 mm. The “Diameters of the inhibition rings” value (C. albicans [1]; C. albicans 10) was 34.5 mm, the “Diameters of the inhibition rings” value (C. albicans [1]; C. albicans 11) was 34.0 mm and the “Diameters of the inhibition rings” value (C. albicans [1]; C. albicans 12) was 34.0 mm. For the same compound, the “Diameters of the inhibition rings” value (C. albicans [1]; C. albicans 13) was 35.0 mm, the “Diameters of the inhibition rings” value (C. albicans [1]; C. albicans 14) was 34.0 mm and the “Diameters of the inhibition rings” value (C. albicans [1]; C. albicans 15) was 34.0 mm. The MFC (C. albicans [2]; C. albicans 1) was 0.032 % v/v, the MIC (C. albicans [2]; C. albicans 1) was 0.032 % v/v and the MFC (C. albicans [2]; C. albicans 2) was 0.032 % v/v. It also gave an MIC (C. albicans [2]; C. albicans 2) of 0.032 % v/v, an MFC (C. albicans [2]; C. albicans 3) of 0.032 % v/v and an MIC (C. albicans [2]; C. albicans 3) of 0.016 % v/v. It also gave an MFC (C. albicans [2]; C. albicans 4) of 0.064 % v/v, an MIC (C. albicans [2]; C. albicans 4) of 0.064 % v/v and an MFC (C. albicans [2]; C. albicans 5) of 0.032 % v/v. It also gave an MIC (C. albicans [2]; C. albicans 5) of 0.008 % v/v, an MFC (C. albicans [2]; C. albicans 6) of 0.032 % v/v and an MIC (C. albicans [2]; C. albicans 6) of 0.032 % v/v. It also gave an MFC (C. albicans [2]; C. albicans 7) of 0.064 % v/v, an MIC (C. albicans [2]; C. albicans 7) of 0.032 % v/v and an MFC (C. albicans [2]; C. albicans 8) of 0.032 % v/v. It also gave an MIC (C. albicans [2]; C. albicans 8) of 0.032 % v/v, an MFC (C. albicans [2]; C. albicans 9) of 0.125 % v/v and an MIC (C. albicans [2]; C. albicans 9) of 0.125 % v/v. For the same compound, the MFC (C. albicans [2]; C. albicans 10) was 0.016 % v/v, the MIC (C. albicans [2]; C. albicans 10) was 0.016 % v/v and the MFC (C. albicans [2]; C. albicans 11) was 0.125 % v/v. It also gave an MIC (C. albicans [2]; C. albicans 11) of 0.064 % v/v, an MFC (C. albicans [2]; C. albicans 12) of 0.064 % v/v and an MIC (C. albicans [2]; C. albicans 12) of 0.016 % v/v. It also gave an MFC (C. albicans [2]; C. albicans 13) of 0.125 % v/v, an MIC (C. albicans [2]; C. albicans 13) of 0.064 % v/v and an MFC (C. albicans [2]; C. albicans 14) of 0.125 % v/v. The MIC (C. albicans [2]; C. albicans 14) was 0.032 % v/v, the MFC (C. albicans [2]; C. albicans 15) was 0.064 % v/v and the MIC (C. albicans [2]; C. albicans 15) was 0.032 % v/v. For the same compound, the “time to kill all the fungal cells” value [3] was “within the first hour” and the “time to kill all the fungal cells” value ([3]; listed as eugenol) was 1 h.
O=CC=Cc1ccccc1 [Cinnamaldheyde, cinnamaldehyde] was tested, and the “Diameters of the inhibition rings” value (C. albicans [1]; C. albicans 1) was 65.0 mm, the “Diameters of the inhibition rings” value (C. albicans [1]; C. albicans 2) was 70.0 mm and the “Diameters of the inhibition rings” value (C. albicans [1]; C. albicans 3) was 67.0 mm. For the same compound, the “Diameters of the inhibition rings” value (C. albicans [1]; C. albicans 4) was 66.0 mm, the “Diameters of the inhibition rings” value (C. albicans [1]; C. albicans 5) was 71.0 mm and the “Diameters of the inhibition rings” value (C. albicans [1]; C. albicans 6) was 67.0 mm. For the same compound, the “Diameters of the inhibition rings” value (C. albicans [1]; C. albicans 7) was 75.0 mm, the “Diameters of the inhibition rings” value (C. albicans [1]; C. albicans 8) was 67.0 mm and the “Diameters of the inhibition rings” value (C. albicans [1]; C. albicans 9) was 70.5 mm. For the same compound, the “Diameters of the inhibition rings” value (C. albicans [1]; C. albicans 10) was 72.5 mm, the “Diameters of the inhibition rings” value (C. albicans [1]; C. albicans 11) was 75.0 mm and the “Diameters of the inhibition rings” value (C. albicans [1]; C. albicans 12) was 75.0 mm. For the same compound, the “Diameters of the inhibition rings” value (C. albicans [1]; C. albicans 13) was 71.0 mm, the “Diameters of the inhibition rings” value (C. albicans [1]; C. albicans 14) was 75.0 mm and the “Diameters of the inhibition rings” value (C. albicans [1]; C. albicans 15) was 70.0 mm. The MFC (C. albicans [2]; C. albicans 1) was 0.008 % v/v, the MIC (C. albicans [2]; C. albicans 1) was 0.004 % v/v and the MFC (C. albicans [2]; C. albicans 2) was 0.008 % v/v. The MIC (C. albicans [2]; C. albicans 2) was 0.004 % v/v, the MFC (C. albicans [2]; C. albicans 3) was 0.004 % v/v and the MIC (C. albicans [2]; C. albicans 3) was 0.004 % v/v. For the same compound, the MFC (C. albicans [2]; C. albicans 4) was 0.008 % v/v, the MIC (C. albicans [2]; C. albicans 4) was ≤0.002 % v/v and the MFC (C. albicans [2]; C. albicans 5) was 0.004 % v/v. For the same compound, the MIC (C. albicans [2]; C. albicans 5) was 0.004 % v/v, the MFC (C. albicans [2]; C. albicans 6) was 0.008 % v/v and the MIC (C. albicans [2]; C. albicans 6) was 0.004 % v/v. The MFC (C. albicans [2]; C. albicans 7) was 0.008 % v/v, the MIC (C. albicans [2]; C. albicans 7) was ≤0.002 % v/v and the MFC (C. albicans [2]; C. albicans 8) was 0.008 % v/v. It also gave an MIC (C. albicans [2]; C. albicans 8) of 0.004 % v/v, an MFC (C. albicans [2]; C. albicans 9) of 0.064 % v/v and an MIC (C. albicans [2]; C. albicans 9) of 0.016 % v/v. For the same compound, the MFC (C. albicans [2]; C. albicans 10) was ≤0.002 % v/v, the MIC (C. albicans [2]; C. albicans 10) was ≤0.002 % v/v and the MFC (C. albicans [2]; C. albicans 11) was ≤0.002 % v/v. The MIC (C. albicans [2]; C. albicans 11) was ≤0.002 % v/v, the MFC (C. albicans [2]; C. albicans 12) was ≤0.002 % v/v and the MIC (C. albicans [2]; C. albicans 12) was ≤0.002 % v/v. It also gave an MFC (C. albicans [2]; C. albicans 13) of 0.016 % v/v, an MIC (C. albicans [2]; C. albicans 13) of 0.008 % v/v and an MFC (C. albicans [2]; C. albicans 14) of 0.016 % v/v. The MIC (C. albicans [2]; C. albicans 14) was 0.004 % v/v, the MFC (C. albicans [2]; C. albicans 15) was 0.008 % v/v and the MIC (C. albicans [2]; C. albicans 15) was 0.004 % v/v.
